What was measured:
[1] = target: T1, ERAP1 (Homo sapiens, UniProt Q9NZ08); assay: ERAP1 WK10; type: biochemical; details: Figure 3B
[2] = target: T1, ERAP1; assay: ERAP1 L-pNA hydrolysis mode of action kinetics; type: biochemical
[3] = test system: ERAP1 T350A
[4] = target: T2, IRAP (Mus musculus, UniProt Q8C129); assay: IRAP L-AMC hydrolysis assay; type: biochemical
T2 sequence (Q8C129 132-1025 limits assumed): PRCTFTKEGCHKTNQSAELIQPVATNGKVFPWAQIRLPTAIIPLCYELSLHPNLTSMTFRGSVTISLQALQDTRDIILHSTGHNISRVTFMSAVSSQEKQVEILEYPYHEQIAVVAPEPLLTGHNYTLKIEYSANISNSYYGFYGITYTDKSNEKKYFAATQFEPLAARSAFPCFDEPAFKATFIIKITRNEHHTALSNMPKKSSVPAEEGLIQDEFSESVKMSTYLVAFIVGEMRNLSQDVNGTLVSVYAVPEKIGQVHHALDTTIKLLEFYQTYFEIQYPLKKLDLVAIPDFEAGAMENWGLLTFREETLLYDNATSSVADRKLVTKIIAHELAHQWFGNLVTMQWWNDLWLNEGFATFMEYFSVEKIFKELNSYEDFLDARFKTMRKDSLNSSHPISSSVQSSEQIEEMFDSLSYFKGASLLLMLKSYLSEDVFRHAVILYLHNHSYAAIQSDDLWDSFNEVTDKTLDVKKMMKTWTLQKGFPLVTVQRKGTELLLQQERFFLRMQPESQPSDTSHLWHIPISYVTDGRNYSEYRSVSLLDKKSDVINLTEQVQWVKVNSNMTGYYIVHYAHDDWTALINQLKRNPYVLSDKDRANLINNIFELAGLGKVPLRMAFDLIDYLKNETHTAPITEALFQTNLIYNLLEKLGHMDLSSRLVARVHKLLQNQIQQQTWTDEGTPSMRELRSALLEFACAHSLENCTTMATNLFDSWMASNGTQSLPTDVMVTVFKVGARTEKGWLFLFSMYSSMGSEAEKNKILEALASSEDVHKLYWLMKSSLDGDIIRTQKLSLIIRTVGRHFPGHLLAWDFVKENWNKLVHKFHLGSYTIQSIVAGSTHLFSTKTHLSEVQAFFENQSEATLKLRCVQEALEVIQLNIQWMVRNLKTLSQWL

[5] = target: T1, ERAP1; assay: ERAP1 LF9 peptide hydrolysis coupled-enzyme assay, mode of action; type: biochemical; details: LF9 peptide substrate
[6] = test system: ERAP1 allele II; assay: L-AMC hydrolysis assay with ERAP1 allelic variant allele II; type: biochemical, human; details: disease-associated allele II (528K)
[7] = test system: ERAP1 K551A; assay: L-AMC activation assay with mutant ERAP1 K551A; type: biochemical, human
[8] = target: T1, ERAP1; assay: ERAP1 L-AMC hydrolysis assay; type: biochemical

T1 sequence (Q9NZ08 22-941): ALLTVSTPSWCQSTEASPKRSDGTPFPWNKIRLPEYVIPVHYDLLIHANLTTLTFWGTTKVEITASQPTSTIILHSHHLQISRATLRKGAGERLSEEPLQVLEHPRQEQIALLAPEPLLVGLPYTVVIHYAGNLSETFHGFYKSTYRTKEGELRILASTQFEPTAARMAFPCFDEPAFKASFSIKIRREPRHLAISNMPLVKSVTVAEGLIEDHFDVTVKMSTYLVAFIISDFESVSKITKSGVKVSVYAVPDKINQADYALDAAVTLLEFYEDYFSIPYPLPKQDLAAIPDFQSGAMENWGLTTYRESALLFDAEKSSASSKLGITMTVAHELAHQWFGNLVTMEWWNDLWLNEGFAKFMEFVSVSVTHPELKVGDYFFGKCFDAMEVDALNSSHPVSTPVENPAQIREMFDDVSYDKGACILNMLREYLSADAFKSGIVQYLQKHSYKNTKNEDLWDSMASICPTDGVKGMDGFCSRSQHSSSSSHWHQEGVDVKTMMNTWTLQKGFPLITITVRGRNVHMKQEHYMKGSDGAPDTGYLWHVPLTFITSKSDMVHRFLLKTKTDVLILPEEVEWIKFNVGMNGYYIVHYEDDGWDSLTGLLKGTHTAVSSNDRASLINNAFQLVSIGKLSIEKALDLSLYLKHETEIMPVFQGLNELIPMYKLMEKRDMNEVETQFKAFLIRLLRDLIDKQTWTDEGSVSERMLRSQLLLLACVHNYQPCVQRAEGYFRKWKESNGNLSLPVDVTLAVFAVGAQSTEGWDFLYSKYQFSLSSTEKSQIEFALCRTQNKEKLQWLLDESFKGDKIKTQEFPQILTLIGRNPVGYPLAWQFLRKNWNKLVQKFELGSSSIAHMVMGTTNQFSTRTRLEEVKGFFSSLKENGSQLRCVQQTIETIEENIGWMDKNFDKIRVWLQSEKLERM

With `N=C(NCCc1c[nH]c2ccccc12)NS(=O)(=O)c1cc(F)ccc1F` [Compound 1, N-(N-(2-(1H-Indol-3-yl)ethyl)carbamimidoyl)-2,5-difluorobenzenesulfonamide] the “effect on WK10 peptide hydrolysis” value [1] was “inhibited peptide hydrolysis in a dose-dependent manner”, the mode of inhibition ([2]; L-pNA substrate) was “competitive” and the “change in potency for mutant ERAP1 (L-AMC inhibition)” value [3] was “small reduction in potency”.

`CC(=O)N1CCN(C(=O)C2(NC(=O)Nc3ccc(C)cc3)CCCCC2)CC1` [Compound 2, 1-(1-(4-Acetylpiperazine-1-carbonyl)cyclohexyl)-3-(p-tolyl)urea] showed an IC50 [4] greater than 200 µM.

With `COc1ccc(C(=O)O)cc1S(=O)(=O)Nc1cc(C(F)(F)F)ccc1N1CCCCC1` [Compound 3, 4-Methoxy-3-(N-(2-(piperidin-1-yl)-5-(trifluoromethyl)phenyl)sulfamoyl)benzoic acid] the mode of inhibition [5] was “competitive”, the “L-AMC AC50 for ERAP1 allele II” value [6] was “sub-micromolar” and the “effect on WK10 peptide hydrolysis” value [1] was “inhibited peptide hydrolysis in a dose-dependent manner”. For the same compound, the “effect of mutation on L-AMC AC50” value [7] was “substantial effect”, the IC50 [4] was greater than 200 µM and the “effect on IRAP activity” value ([4]; Figure 2C) was “no detectable effect”. The “increase of L-pNA hydrolysis activity (Vmax/Khalf)” value ([2]; over the concentration range tested) was “up to 1.8 fold”.

With `CC(=O)N1CCN(C(=O)C2(NC(=O)Nc3ccc(Cl)cc3)CCCCC2)CC1` [Compound 16, 1-(1-(4-Acetylpiperazine-1-carbonyl)cyclohexyl)-3-(4-chlorophenyl)urea] the IC50 [4] was greater than 200 µM.

In the case of `COc1ccc(NC(=O)NC2(C(=O)N3CCN(C(C)=O)CC3)CCCCC2)cc1` [Compound 17, 1-(1-(4-Acetylpiperazine-1-carbonyl)cyclohexyl)-3-(4-methoxyphenyl)urea], the IC50 [4] is reported as greater than 200 µM.

For `CC(=O)N1CCN(C(=O)C2(NC(=O)Nc3ccc(F)cc3)CCCCC2)CC1` [Compound 18, 1-(1-(4-Acetylpiperazine-1-carbonyl)cyclohexyl)-3-(4-fluorophenyl)urea], the IC50 [4] was greater than 200 µM.

`CC(=O)N1CCN(C(=O)C2(NC(=O)Nc3ccccc3)CCCCC2)CC1` [Compound 19, 1-(1-(4-Acetylpiperazine-1-carbonyl)cyclohexyl)-3-phenylurea] was tested, and the IC50 [4] was greater than 200 µM.

For `Cc1ccc(NC(=O)NC2(C(=O)N3CCOCC3)CCCCC2)cc1` [Compound 20, 1-(1-(Morpholine-4-carbonyl)cyclohexyl)-3-(p-tolyl)urea], the “activity in ERAP1 L-AMC hydrolysis assay” value [8] was “no detectable inhibitory activity” and the IC50 [4] was greater than 200 µM.

`Cc1ccc(NC(=O)NC2(C(=O)N3CCN(c4ccccc4)CC3)CCCCC2)cc1` [Compound 21, 1-(1-(4-Phenylpiperazine-1-carbonyl)cyclohexyl)-3-(p-tolyl)urea] was tested, and the “activity in ERAP1 L-AMC hydrolysis assay” value [8] was “no detectable inhibitory activity” and the IC50 [4] was greater than 200 µM.

With `CC(=O)N1CCN(C(=O)C(C)(C)NC(=O)Nc2ccc(C)cc2)CC1` [Compound 22, 1-(1-(4-Acetylpiperazin-1-yl)-2-methyl-1-oxopropan-2-yl)-3-(p-tolyl)urea] the IC50 [4] was greater than 200 µM.

`CC(=O)N1CCN(C(=O)C2(NC(=O)Nc3ccc(C)cc3)CC2)CC1` [Compound 23, 1-(1-(4-Acetylpiperazine-1-carbonyl)cyclopropyl)-3-(p-tolyl)urea] was tested, and the IC50 [4] was greater than 200 µM.

From article PMC8218592 (Journal of medicinal chemistry, 2019)
